# Source: patent US9120774B2 (University of Kansas, priority 2009, dated 2015)
# Like-named read-outs stand apart in the source and are kept apart here.
# Experiments:
# Assay type in all cases: cell-based
# [1] = test system: SkBr3 (Her2 overexpressing breast cancer cells); test: Anti-proliferation activity against SkBr3 cells (MTS/PMS)
# In short: (§1)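 Viability after 72 h compound treatment (1% DMSO final, 37° C., 5% CO2) measured by MTS/PMS; plating density 2000 cells/well with overnight attachment.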
# [2] = test system: MCF-7 (estrogen receptor positive breast cancer cells); test: Anti-proliferation activity against MCF-7 cells (MTS/PMS)
# In short: as §1
# [3] = test system: LN3 (metastatic human prostate cancer cells); test: Anti-proliferation activity against LN3 cells (MTS/PMS)
# Experimental: (§2) Cells were maintained in a 1:1 mixture of Advanced DMEM/F12 (Gibco) supplemented with non-essential amino acids, L-glutamine (2 mM), streptomycin (500 μg/mL), penicillin (100 units/mL), and 10% FBS. Cells were grown to confluence in a humidified atmosphere (37° C., 5% CO2), seeded (2000/well, 100 μL) in 96-well plates, and allowed to attach overnight. Compound or GDA at varying concentrations in DMSO (1% DMSO final concentration) was added, and cells were returned to the incubator for 72 hours. At 72 hours, the number of viable cells was determined using an MTS/PMS cell proliferation kit (Promega) per the manufacturer's instructions. Cells incubated in 1% DMSO were used at 100% proliferation, and values were adjusted accordingly. IC50 values were calculated from separate experiments performed in triplicate using GraphPad Prism.
# [4] = test system: MM2 (metastatic mammary tumor cancer cells); test: Anti-proliferation activity against MM2 cells (MTS/PMS)
# Experimental: as §2
# [5] = test system: A549 (human alveolar basal epithelial cells); test: Anti-proliferation activity against A549 cells (MTS/PMS)
# Experimental: as §2
# cancer cell lines = test: Anti-proliferative activity, statements covering several cancer cell lines
# Experimental: Upon completion of synthesis of library of compounds in Examples 23 and 24, the compounds were evaluated for anti-proliferative activity against SkBr3 (Her2 overexpressing breast cancer cells), MCF-7 (estrogen receptor positive breast cancer cells), HCT-116 (colon cancer cells characterized by wild-type p53), PL45 (pancreatic cancer cells), LNCaP (androgen sensitive prostate cancer cells) and PC-3 (androgen independent prostate cancer cells) cell lines. […] The monosubstituted benzamide variants improved activity.
# as §2, with “ng/mL),” for “μg/mL),”, “μl)” for “μL)”
# as §2
# [6] = test system: HCT-116 (colon cancer cells characterized by wild-type p53); test: Anti-proliferation activity against HCT-116 cells; conditions: Homo sapiens, Table 2, n = 3
# [7] = test system: PL45 (pancreatic cancer cells); test: Anti-proliferation activity against PL45 cells; conditions: Table 2, n = 3
# [8] = test system: LNCaP (androgen sensitive prostate cancer cells); test: Anti-proliferation activity against LNCaP cells; conditions: Homo sapiens, LNCaP; Table 2; n = 3; read-out: IC50 LNCaP
# In short: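 Cells seeded at 2000/well in Advanced DMEM/F12 with 10% FBS and attached overnight, then given compound in 1% DMSO final for 72 h at 37 °C, 5% CO2. Viable cells by MTS/PMS read-out, normalised to 1% DMSO as 100% proliferation. IC50 from separate triplicate experiments.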
# [9] = test system: PC-3 (androgen independent prostate cancer cells); test: Anti-proliferation activity against PC-3 cells; conditions: Homo sapiens, PC-3; Table 2; n = 3; read-out: IC50 PC-3
# In short: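 Antiproliferative activity was tested in PC-3 androgen-independent prostate cancer cells. Cells grown at 37° C. with 5% CO2 in Advanced DMEM/F12 (1:1) containing non-essential amino acids, 2 mM L-glutamine, streptomycin, penicillin and 10% FBS were plated at 2000/well in 96-well plates. Proliferation was normalized to 1% DMSO controls, and IC50 values from triplicate experiments were fitted in GraphPad Prism.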
# [10] = Table 8, unsaturated azasugar analogues, 72 hours
# [11] = Table 9, azasugar analogues on 8-methyl coumarin, 72 hours, read-out: IC50 SKBr3
# [12] = Table 9, azasugar analogues on 8-methyl coumarin, 72 hours, read-out: IC50 MCF-7
# [13] = Table 9, azasugar analogues on 8-methyl coumarin, 72 hours
# [14] = Homo sapiens, SK-BR-3, Table 10, azasugar analogues on 6-methoxy coumarin, 72 hours, read-out: IC50 SKBr3
# [15] = Homo sapiens, MCF7, Table 10, azasugar analogues on 6-methoxy coumarin, 72 hours, read-out: IC50 MCF-7
# [16] = Homo sapiens, Table 10, azasugar analogues on 6-methoxy coumarin, 72 hours
# [17] = Table 10, azasugar analogues on 6-methoxy coumarin, 72 hours
# [18] = Homo sapiens, A549, Table 10, azasugar analogues on 6-methoxy coumarin, 72 hours
# [19] = Homo sapiens, SK-BR-3, Table 12, aliphatic chain analogues, 72 hours, read-out: IC50 SKBr3
# [20] = Homo sapiens, MCF7, Table 12, aliphatic chain analogues, 72 hours, read-out: IC50 MCF-7
# [21] = Homo sapiens, Table 12, aliphatic chain analogues, 72 hours
# [22] = Table 12, aliphatic chain analogues, 72 hours
# [23] = Homo sapiens, A549, Table 12, aliphatic chain analogues, 72 hours
# [24] = Homo sapiens, SK-BR-3, Table 20, indole-2-carboxamide analogues with noviose replacements, read-out: IC50, SKBr3
# [25] = Homo sapiens, MCF7, Table 20, indole-2-carboxamide analogues with noviose replacements, read-out: IC50, MCF-7
# [26] = Homo sapiens, Table 20, indole-2-carboxamide analogues with noviose replacements
# [27] = Table 20, indole-2-carboxamide analogues with noviose replacements
# [28] = Homo sapiens, A549, Table 20, indole-2-carboxamide analogues with noviose replacements
# [29] = Table 13, various sugars on 8-methyl coumarin, 72 hours
smiles,measurement,setting,value
CO[C@@H]1[C@@H](O)[C@@H](O)[C@H](Oc2ccc3cc(NC(=O)c4ccccc4N)c(=O)oc3c2C)OC1(C)C [18 KU-260],IC50,"[1]; Table 8, unsaturated azasugar analogues, 72 hours, read-out: IC50 SKBr3",1.61 ± 0.1 µM
same,IC50,"[2]; Table 8, unsaturated azasugar analogues, 72 hours, read-out: IC50 MCF-7",1.73 µM
same,IC50,[3]; [10],4.23 µM
same,IC50,[4]; [10],4.36 µM
same,IC50,[5]; [10],1.42 µM
"CC(C)=CCc1cc(C(=O)Nc2cc3ccc(O[C@@H]4C[C@H](O)CCO4)c(C)c3oc2=O)ccc1O [18b, KU-430, 4-Hydroxy-N-(7-((2R,4R)-4-hydroxytetrahydro-2H-pyran-2-yloxy)-8-methyl-2-oxo-2H-chromen-3-yl)-3-(3-methylbut-2-enyl)benzamide]",IC50,"[1]; Homo sapiens, SK-BR-3, Table 18, modified furanose or pyranose noviose replacements, read-out: IC50, SKBr3",3.11 ± 0.19 µM
same,IC50,"[1]; Homo sapiens, SK-BR-3, text of Example 47, read-out: IC50 SKBr3",3.11 ± 0.03 µM
same,IC50,"[2]; Homo sapiens, MCF7, Table 18, modified furanose or pyranose noviose replacements, read-out: IC50, MCF7",1.56 ± 0.09 µM
same,IC50,"[2]; Homo sapiens, MCF7, text of Example 47, read-out: IC50 MCF-7",1.56 ± 0.2 µM
same,times/fold more active than DHN2 (anti-proliferative activity),cancer cell lines,~3 fold
same,times/fold more active than novobiocin (anti-proliferative activity),cancer cell lines,~200 fold
"CO[C@@H]1[C@@H](O)[C@@H](O)[C@H](Oc2ccc3cc(NC(=O)OCc4ccccc4)c(=O)oc3c2C)OC1(C)C [24, KU-249]",IC50,[1]; [11],2.91 ± 1.1 µM
same,IC50,[2]; [12],2.07 ± 1.1 µM
same,IC50,[3]; [13],6.73 µM
same,IC50,[4]; [13],7.75 µM
same,IC50,[5]; [13],4.07 µM
"CO[C@@H]1[C@@H](O)[C@@H](O)[C@H](Oc2ccc3cc(NC(=O)C=Cc4ccccc4)c(=O)oc3c2C)OC1(C)C [25, KU-254]",IC50,[1]; [11],> 50 µM
same,IC50,[2]; [12],> 50 µM
same,IC50,[3]; [13],0.23 µM
same,IC50,[4]; [13],3.42 µM
"COc1ccc(C(=O)Nc2cc3ccc(O[C@@H]4OC(C)(C)[C@H](OC)[C@@H](O)[C@H]4O)c(C)c3oc2=O)cc1-c1ccccc1 [28, KU-252]",IC50,[1]; [11],5.41 ± 0.8 µM
same,IC50,[2]; [12],29.4 ± 8.4 µM
same,IC50,[3]; [13],0.35 µM
same,IC50,[4]; [13],2.99 µM
COc1cccc(-c2cc(C(=O)Nc3cc4ccc(OC5CCN(C)CC5)c(OC)c4oc3=O)ccc2OC)c1 [KU-275],IC50,"[1]; Homo sapiens, SK-BR-3, Table 11, azasugar analogues on 8-methoxy coumarin, 72 hours, read-out: IC50 SKBr3",0.97 ± 0.09 µM
same,IC50,"[2]; Homo sapiens, MCF7, Table 11, azasugar analogues on 8-methoxy coumarin, 72 hours, read-out: IC50 MCF-7",1.39 ± 0.35 µM
same,IC50,"[3]; Homo sapiens, Table 11, azasugar analogues on 8-methoxy coumarin, 72 hours",4.75 µM
same,IC50,"[4]; Table 11, azasugar analogues on 8-methoxy coumarin, 72 hours",3.71 µM
same,IC50,"[5]; Homo sapiens, A549, Table 11, azasugar analogues on 8-methoxy coumarin, 72 hours",3.06 µM
COc1cccc(-c2cc(C(=O)Nc3cc4cc(OC)c(OC5CCCN(C)C5)c(C)c4oc3=O)ccc2OC)c1 (stereo not drawn) [KU-281],IC50,[1]; [14],1.49 ± 0.07 µM
same,IC50,[2]; [15],1.41 ± 0.16 µM
same,IC50,[3]; [16],6.63 µM
same,IC50,[4]; [17],4.47 µM
same,IC50,[5]; [18],3.19 µM
COc1cccc(-c2cc(C(=O)Nc3cc4cc(OC)c(OC5CCNCC5)c(C)c4oc3=O)ccc2OC)c1 [KU-286],IC50,[1]; [14],1.2 ± 0.1 µM
same,IC50,[2]; [15],2.82 ± 1.38 µM
same,IC50,[3]; [16],5.27 µM
same,IC50,[4]; [17],4.02 µM
same,IC50,[5]; [18],3.5 µM
COc1cccc(-c2cc(C(=O)Nc3cc4cc(OC)c(OC5CCN(C)CC5)c(C)c4oc3=O)ccc2OC)c1 [KU-287],IC50,[1]; [14],1.19 ± 0.21 µM
same,IC50,[2]; [15],1.79 ± 0.11 µM
same,IC50,[3]; [16],4.07 µM
same,IC50,[4]; [17],2.84 µM
same,IC50,[5]; [18],1.99 µM
COc1cccc(-c2cc(C(=O)Nc3cc4ccc(OCCN(C)C)c(OC)c4oc3=O)ccc2OC)c1 [KU-292],IC50,[1]; [19],1.77 ± 0.15 µM
same,IC50,[2]; [20],3.08 ± 0.12 µM
same,IC50,[3]; [21],5.22 µM
same,IC50,[4]; [22],6.2 µM
same,IC50,[5]; [23],8.8 µM
COc1cccc(-c2cc(C(=O)Nc3cc4cc(OC)c(OCCN(C)C)c(C)c4oc3=O)ccc2OC)c1 [KU-294],IC50,[1]; [19],1.42 ± 0.26 µM
same,IC50,[2]; [20],1.29 ± 0.21 µM
same,IC50,[3]; [21],4.71 µM
same,IC50,[4]; [22],4.87 µM
same,IC50,[5]; [23],2.21 µM
COc1cccc(-c2cc(C(=O)Nc3cc4ccc(OCCCN(C)C)c(C)c4oc3=O)ccc2OC)c1 [KU-317],IC50,[1]; [19],0.6 ± 0.01 µM
same,IC50,[2]; [20],0.5 ± 0.04 µM
same,IC50,[3]; [21],37.5 µM
same,IC50,[4]; [22],12.8 µM
same,IC50,[5]; [23],13.1 µM
COc1cccc(-c2cc(C(=O)Nc3cc4ccc(OCCCN(C)C)c(OC)c4oc3=O)ccc2OC)c1 [KU-319],IC50,[1]; [19],0.91 ± 0.17 µM
same,IC50,[2]; [20],1.53 ± 0.18 µM
same,IC50,[3]; [21],8.03 µM
same,IC50,[4]; [22],4.08 µM
same,IC50,[5]; [23],3.43 µM
Cc1c(OC2CCN(C)CC2)ccc2cc(NC(=O)c3cc4ccccc4[nH]3)c(=O)oc12 [KU-361],IC50,[1]; [24],0.48 ± 0.11 µM
same,IC50,[2]; [25],0.57 ± 0.04 µM
same,IC50,[3]; [26],11.8 ± 0.68 µM
same,IC50,[4]; [27],11.4 ± 6.56 µM
same,IC50,[5]; [28],3.91 µM
COc1cc2cc(NC(=O)c3cc4ccccc4[nH]3)c(=O)oc2c(C)c1OC1CCN(C)CC1 [KU-363],IC50,[1]; [24],0.11 ± 0.01 µM
same,IC50,[2]; [25],0.52 ± 0.05 µM
same,IC50,[3]; [26],1.47 ± 0.66 µM
same,IC50,[4]; [27],0.87 ± 0.57 µM
same,IC50,[5]; [28],0.59 µM
COc1cc2cc(NC(=O)c3cc4ccccc4[nH]3)c(=O)oc2c(C)c1OC1CCCN(C)C1 (stereo not drawn) [KU-366],IC50,[1]; [24],0.15 ± 0.06 µM
same,IC50,[2]; [25],0.69 ± 0.12 µM
same,IC50,[3]; [26],14.8 µM
same,IC50,[4]; [27],42.8 µM
same,IC50,[5]; [28],> 100 µM
"CO[C@@H]1[C@@H](O)[C@@H](O)[C@H](Oc2ccc3cc(NC(=O)c4cccc(N)c4)c(=O)oc3c2C)OC1(C)C [compound 19, 3-Amino-N-(7-((2R,3R,4S,5R)-3,4-dihydroxy-5-methoxy-6,6-dimethyltetrahydro-2H-pyran-2-yloxy)-8-methyl-2-oxo-2H-chromen-3-yl)benzamide]",IC50,"[1]; Homo sapiens, SK-BR-3, Table 2, n = 3, read-out: IC50 SkBr3",61.4 ± 4.7 µM
same,IC50,"[1]; Table 13, various sugars on 8-methyl coumarin, 72 hours, read-out: IC50 SKBr3",12.5 ± 0.7 µM
same,IC50,"[2]; Homo sapiens, MCF7, Table 2, n = 3, read-out: IC50 MCF-7",30.1 ± 3.4 µM
same,IC50,"[2]; Table 13, various sugars on 8-methyl coumarin, 72 hours, read-out: IC50 MCF7",37.2 ± 2.1 µM
same,IC50,[6],21.2 ± 2.2 µM
same,IC50,[7],12.5 ± 0.9 µM
same,IC50,[8],24.8 ± 9.7 µM
same,IC50,[9],14.7 ± 2.6 µM
same,IC50,[3]; [29],3.65 µM
same,IC50,[4]; [29],30.6 µM
same,IC50,[5]; [29],> 100 µM
